Measured values reported in ChEMBL document CHEMBL1155596, “8-O-Methylsclerotiorinamine, antagonist of the Grb2-SH2 domain, isolated from Penicillium multicolor” (J Nat Prod, 2000).

Assays:
[1] = molecular target: Growth factor receptor-bound protein 2 (Homo sapiens, UniProt P62993); assay: Inhibition of GST tagged Grb2 SH2 domain binding to Shc-derived [3H]phosphopeptide
[2] = Growth inhibition of mouse B104-1-1 cells after 48 hrs by WST1 assay; format: cell-based
[3] = molecular target: Growth factor receptor-bound protein 2 (Mus musculus) (UniProt Q60631); assay: Inhibition of Shc-Grb2 interaction in mouse B104-1-1 cells by immunoblotting; format: cell-based; design: scale not given: the % may be the effect or the level left
Sequence of Growth factor receptor-bound protein 2 (Mus musculus) (Q60631 whole entry): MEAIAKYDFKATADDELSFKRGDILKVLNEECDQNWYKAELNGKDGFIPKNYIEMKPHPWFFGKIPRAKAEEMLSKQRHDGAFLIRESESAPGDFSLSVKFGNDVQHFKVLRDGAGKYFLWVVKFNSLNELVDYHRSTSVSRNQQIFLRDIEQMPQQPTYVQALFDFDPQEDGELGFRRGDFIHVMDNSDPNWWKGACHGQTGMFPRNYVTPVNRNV

Sequence of Growth factor receptor-bound protein 2 (P62993 whole entry, the tested form may be a part): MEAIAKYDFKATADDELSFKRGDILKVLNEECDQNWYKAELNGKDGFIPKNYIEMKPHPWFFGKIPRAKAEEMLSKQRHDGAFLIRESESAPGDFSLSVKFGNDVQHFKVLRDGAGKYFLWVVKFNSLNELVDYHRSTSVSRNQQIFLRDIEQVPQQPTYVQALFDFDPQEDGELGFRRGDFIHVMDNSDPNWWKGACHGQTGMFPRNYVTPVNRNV

## CCC(C)/C=C(C)/C=C/c1cc2c(cn1)=C(OC)[C@@](C)(OC(C)=O)C(=O)C=2Cl (stereo partly drawn)
[1]
  IC50: 5.3 µM
[2]
  GI50 at 48 h: 50 µM
[3]
  Activity: 50%
